The assay concerns the target human OX2R (Homo sapiens (Human), UniProt O43614). Kind of assay: IPOne (IP-1) assay in CHO cells expressing human OX2R. Type of assay: cell-based. Conditions: for IC50: CHO cells expressing human OX2R, IP-One detection, 2 hours incubation, EC50 = inflection point of four parameter logistic fit, read-out: hOX2R_IP_IC50; for Emax: CHO. Put shortly:
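CHO cells stably expressing human OX2R were stimulated with compound (10-point ½-log dilutions) for 2 h at 37 °C. IP-1 accumulation was read by HTRF (IP-One, 665/620 nm). EC50 from a four-parameter fit; % effect relative to 1 μM reference agonist control.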

The mark [1] stands for this setting: percentage of mean max effect of a reference compound at 1 uM (100% activity by comparison to Orexin A), human OX2R, read-out: Emax (%).
Setting [2] is: percentage of mean max effect of a reference compound at 1 uM (100% activity by comparison to Orexin A), human OX2R.

Like-named read-outs stand apart in the source and are kept apart here.

Broadly, the Emax is the maximal effect, on the per cent scale that the assay sets.

human OX2R, sequence (O43614 whole entry): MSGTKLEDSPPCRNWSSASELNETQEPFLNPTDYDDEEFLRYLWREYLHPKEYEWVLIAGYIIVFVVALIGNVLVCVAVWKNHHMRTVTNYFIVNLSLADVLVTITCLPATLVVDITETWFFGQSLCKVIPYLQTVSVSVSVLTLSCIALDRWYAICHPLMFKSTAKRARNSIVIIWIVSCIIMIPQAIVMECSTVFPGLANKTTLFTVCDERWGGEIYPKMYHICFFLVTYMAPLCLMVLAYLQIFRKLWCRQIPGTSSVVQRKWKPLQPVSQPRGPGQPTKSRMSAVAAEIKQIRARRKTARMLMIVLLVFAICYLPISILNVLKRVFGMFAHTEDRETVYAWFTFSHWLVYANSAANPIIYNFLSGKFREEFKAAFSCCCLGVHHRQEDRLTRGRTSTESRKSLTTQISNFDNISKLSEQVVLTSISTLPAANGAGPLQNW

On to `CCS(=O)(=O)N[C@H]1C[C@@H](C(F)F)N(C(=O)OC(C)C)[C@H]1CO[C@H]1CC[C@@]2(c3ncc(F)cn3)C[C@H]2C1` (single isomer, unassigned) [Example 118], for which the IC50 was 0.99 nM. Also, the Emax under setting [1] turned out to be 100%.

In the case of `COC(=O)N1[C@H](C)C[C@H](NS(=O)(=O)N(C)C)[C@@H]1COC1CCC2(c3ncccn3)C(C1)C2(F)F` (stereo partly drawn) [Example 7, methyl (2R,3S,5R)-2-(((7,7-difluoro-6-(pyrimidin-2-yl)bicyclo[4.1.0]heptan-3-yl)oxy)methyl)-3-((N,N-dimethylsulfamoyl)amino)-5-methylpyrrolidine-1-carboxylate], the Emax under setting [1] was determined as 39.4%.

For the compound `CC(C)OC(=O)N1[C@H](C)C[C@H](NS(C)(=O)=O)[C@@H]1CO[C@H]1CC[C@@]2(c3ncc(Cl)cn3)C[C@H]2C1` (single isomer, unassigned) [Example 151], the IC50 stood at 4.4 nM. Also, the Emax under setting [1] stood at 101%.

Regarding `COC(=O)N1[C@H](C)C[C@H](NS(=O)(=O)N2CCC2)[C@@H]1CO[C@H]1CC[C@@]2(c3ncc(F)cn3)C[C@H]2C1` [Example 39, methyl (2R,3S,5R)-3-(azetidine-1-sulfonamido)-2-((((1S,3S,6R)-6-(5-fluoropyrimidin-2-yl)bicyclo[4.1.0]heptan-3-yl)oxy)methyl)-5-methylpyrrolidine-1-carboxylate], the Emax under setting [1] is 103%.

Consider `CC(C)OC(=O)N1[C@H](C)C[C@H](NS(=O)(=O)CF)[C@@H]1COC1CCC2(c3ncc(Br)cn3)CC2C1` (stereo partly drawn) [Example 108, isopropyl (2R,3S,5R)-2-(((6-(5-bromopyrimidin-2-yl)bicyclo[4.1.0]heptan-3-yl)oxy)methyl)-3-((fluoromethyl)sulfonamido)-5-methylpyrrolidine-1-carboxylate], for which the maximal response (Emax) under setting [1] is 105%.

`CC(C)OC(=O)N1CCC[C@H](NS(=O)(=O)C(F)(F)F)[C@@H]1COC1CC[C@@]2(c3ncc(F)cn3)CC2C1` (stereo partly drawn) [Example 123, isopropyl (2R,3S)-2-(((6-(5-fluoropyrimidin-2-yl)bicyclo[4.1.0]heptan-3-yl)oxy)methyl)-3-((trifluoromethyl)sulfonamido)piperidine-1-carboxylate]: the maximum response (Emax) under setting [1] was determined as 102%.

Regarding `COC(=O)N1[C@H](C)C[C@H](NS(=O)(=O)C(F)(F)F)[C@@H]1CO[C@H]1CC[C@@]2(c3ncc(F)cn3)C[C@H]2C1` [Example 31, methyl (2R,3S,5R)-2-((((1S,3S,6R)-6-(5-fluoropyrimidin-2-yl)bicyclo[4.1.0]heptan-3-yl)oxy)methyl)-5-methyl-3-((trifluoromethyl)sulfonamido)pyrrolidine-1-carboxylate], under setting [1], the Emax came to 101%.

On to `C[C@@H]1C[C@H](NS(C)(=O)=O)[C@H](CO[C@H]2CC[C@@]3(c4ncc(F)cn4)C[C@H]3C2)N1C(=O)OCC1CC(F)C1` (stereo partly drawn) [Example 49, (3-fluorocyclobutyl)methyl (2R,3S,5R)-2-((((1S,3S,6R)-6-(5-fluoropyrimidin-2-yl)bicyclo[4.1.0]heptan-3-yl)oxy)methyl)-5-methyl-3-(methylsulfonamido)pyrrolidine-1-carboxylate], for which the Emax was 103%.

For `COC(=O)N1[C@H](C)C[C@H](NS(=O)(=O)N(C)C)[C@@H]1CO[C@H]1CC[C@@]2(c3ncc(F)cn3)C[C@H]2C1` [Example 166, methyl (2R,3S,5R)-3-((N,N-dimethylsulfamoyl)amino)-2-((((1S,3S,6R)-6-(5-fluoropyrimidin-2-yl)bicyclo[4.1.0]heptan-3-yl)oxy)methyl)-5-methylpyrrolidine-1-carboxylate], the IC50 amounted to 0.41 nM. Moreover, the Emax under setting [1] was 99.4%.

Consider `COC(=O)N1[C@H](C)C[C@H](NS(C)(=O)=O)[C@@H]1COC1CCC2(c3ncccn3)CC2C1` (single isomer, unassigned) [Example 183], for which the IC50 was 2260 nM. Besides, the Emax under setting [1] amounted to 89.7%.

In the case of `CC(C)OC(=O)N1[C@H](C)C[C@H](NS(=O)(=O)N(C)C)[C@@H]1COC1CCC2(c3ncc(F)cn3)CC2C1` (stereo partly drawn) [Example 164, isopropyl (2R,3S,5R)-3-((N,N-dimethylsulfamoyl)amino)-2-(((6-(5-fluoropyrimidin-2-yl)bicyclo[4.1.0]heptan-3-yl)oxy)methyl)-5-methylpyrrolidine-1-carboxylate], under setting [1], the Emax worked out at 100%.

Consider `COC(=O)N1[C@H](C)C[C@H](NS(C)(=O)=O)[C@@H]1CO[C@@H]1CC[C@]2(c3ncccn3)C[C@@H]2C1` (single isomer, unassigned) [Example 180], for which the IC50 was 100 nM. For the same compound, under setting [1], the Emax is 99.7%.

For `CCS(=O)(=O)N[C@H]1CCCN(C(=O)OC(C)C)[C@H]1COC1CC[C@@]2(c3ncc(F)cn3)CC2C1` (stereo partly drawn) [Example 126, isopropyl (2R,3S)-3-(ethylsulfonamido)-2-(((6-(5-fluoropyrimidin-2-yl)bicyclo[4.1.0]heptan-3-yl)oxy)methyl)piperidine-1-carboxylate], the Emax under setting [1] came out at 104%.

Turning to `COC(=O)N1[C@H](C)C[C@H](NS(C)(=O)=O)[C@@H]1COC1CCC2(c3ncc(C#N)cn3)CC2C1` (mixture of isomers) [Example 188, methyl (2R,3S,5R)-2-(((6-(5-cyanopyrimidin-2-yl)bicyclo[4.1.0]heptan-3-yl)oxy)methyl)-5-methyl-3-(methylsulfonamido)pyrrolidine-1-carboxylate], the IC50 is 195 nM. The Emax under setting [1] was 96.9%.

For `CC(C)OC(=O)N1[C@H](C)C[C@H](NS(C)(=O)=O)[C@@H]1COC1CCC2(c3ncc(F)cn3)CC2C1` (mixture of isomers) [Example 26, isopropyl (2R,3S,5R)-2-(((6-(5-fluoropyrimidin-2-yl)bicyclo[4.1.0]heptan-3-yl)oxy)methyl)-5-methyl-3-(methylsulfonamido)pyrrolidine-1-carboxylate], the IC50 was 11.4 nM. Further, the Emax under setting [1] came out at 101%.

Consider `CC(C)OC(=O)N1[C@H](C)C[C@H](NS(=O)(=O)CF)[C@@H]1CO[C@H]1CC[C@@]2(c3ncc(F)cn3)C[C@H]2C1` (single isomer, unassigned) [Example 100], for which the IC50 was determined as 1 nM. Also, under setting [1], the Emax was 100%.

For `CC(C)OC(=O)N1[C@H](C)C[C@H](NS(=O)(=O)CF)[C@@H]1CO[C@@H]1CC[C@]2(c3ncc(Cl)cn3)C[C@@H]2C1` (single isomer, unassigned) [Example 96], the IC50 was found to be 6.5 nM. Under setting [1], the Emax was 103%.

With `COC(=O)N1[C@H](C)C[C@H](NS(=O)(=O)C(F)F)[C@@H]1COC1CCC2(c3ncccn3)CC2C1` (mixture of isomers) [Example 67, methyl (2R,3S,5R)-3-((difluoromethyl)sulfonamido)-5-methyl-2-(((6-(pyrimidin-2-yl)bicyclo[4.1.0]heptan-3-yl)oxy)methyl)pyrrolidine-1-carboxylate], the IC50 turned out to be 3.4 nM. Further, under setting [1], the Emax is 101%.

Take `COC(=O)N1[C@H](C)C[C@H](NS(C)(=O)=O)[C@@H]1CO[C@@H]1CC[C@]2(c3ncccn3)C[C@@H]2C1` (single isomer, unassigned) [Example 20]: the “Emax (%)” value under setting [2] is given as 99.7%.

For the compound `COC(=O)N1[C@H](C)C[C@H](NS(=O)(=O)C2COC2)[C@@H]1CO[C@H]1CC[C@@]2(c3ncc(F)cn3)C[C@H]2C1` [Example 40, methyl (2R,3S,5R)-2-((((1S,3S,6R)-6-(5-fluoropyrimidin-2-yl)bicyclo[4.1.0]heptan-3-yl)oxy)methyl)-5-methyl-3-(oxetane-3-sulfonamido)pyrrolidine-1-carboxylate], the Emax under setting [1] was determined as 102%.

Consider `CC(C)OC(=O)N1[C@H](C)C[C@H](NS(=O)(=O)N(C)C)[C@@H]1COC1CCC2(c3ncccn3)CC2C1` (stereo partly drawn) [Example 8, isopropyl (2R,3S,5R)-3-((N,N-dimethylsulfamoyl)amino)-5-methyl-2-(((6-(pyrimidin-2-yl)bicyclo[4.1.0]heptan-3-yl)oxy)methyl)pyrrolidine-1-carboxylate], for which, under setting [2], the “Emax (%)” value is 95.4%.

Consider `COC(=O)N1[C@H](C)C[C@H](NS(C)(=O)=O)[C@@H]1CO[C@@H]1CC[C@]2(c3ncc(F)cn3)C[C@@H]2C1` [Example 136, methyl (2R,3S,5R)-2-((((1R,3R,6S)-6-(5-fluoropyrimidin-2-yl)bicyclo[4.1.0]heptan-3-yl)oxy)methyl)-5-methyl-3-(methylsulfonamido)pyrrolidine-1-carboxylate], for which the Emax under setting [1] is 101%.

For `COC(=O)N1[C@H](C(F)F)C[C@H](NS(=O)(=O)CF)[C@@H]1CO[C@H]1CC[C@@]2(c3ncc(Cl)cn3)C[C@H]2C1` (single isomer, unassigned) [Example 115], the IC50 turned out to be 1.1 nM. Also, the Emax under setting [1] came out at 103%.
